Laboratory results published in patent publication US20240124504A1, “AROMATIC HETEROCYCLIC COMPOUND, AND PHARMACEUTICAL COMPOSITION AND APPLICATION THEREOF” (GT APEIRON THERAPEUTICS LIMITED, priority 2020, published 2024).

Key:
CDK2/cyclinE1 complex = CDK2/cyclinE1 complex (Homo sapiens, UniProt P24941); assay: In-vitro enzymatic inhibitory activity testing, CDK2 inhibition assay (Caliper EZ Reader II); format: biochemical; details: CDK2/cyclinE1 0.5 nM, 180 min at 27° C.
In short: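 CDK2/cyclinE1 (0.5 nM) phosphorylated 5-FAM-CDK7tide (2 μM) in MES buffer pH 6.5 with MgCl2, Tween 20 and BSA. Substrate and product were separated electrophoretically on a Caliper EZ Reader II. IC50 values came from nonlinear dose-response fits.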

[1] = target: T1, CDK12 (aa686-1082)/cyclinK complex (Homo sapiens, UniProt Q9NYV4); assay: In-vitro enzymatic inhibitory activity testing, CDK12 inhibition assay (Caliper EZ Reader II); format: biochemical; details: CDK12/cyclinK 50 nM, 180 min at 27° C.; read-out: CDK12 IC50
T1 construct: A CDK12 (aa686-1082)/cyclinK complex (50 nM)
In short: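 CDK12 (aa686-1082)/cyclinK complex at 50 nM was pre-incubated with compound for 10 min, then reacted 180 min at 27° C with ATP and 2 μM 5-FAM-CDK9tide in pH 6.5 MES buffer with 10 mM MgCl2. Reactions were EDTA-quenched and product resolved electrophoretically; IC50 from nonlinear curve fit.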

ovarian cancer A2780 = assay: Cell biological activity detection (CyQuant, 72 hours), A2780; format: cell-based, human; details: Homo sapiens, A2780, 72 h, A2780 cells, incubation for 72 hours
In short: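 IC50 derived from CyQuant Direct nuclear staining (488 nm excitation) after 72 h compound exposure at 37 °C, 5% CO2. Compounds tested in 9 concentrations from 10 μM, 1:4 steps, 0.2% DMSO, on A2780 or HCC70 cells plated overnight at 2000/well in RPMI 1640 + 10% FBS.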

T1 sequence (Q9NYV4 686-1082, species assumed): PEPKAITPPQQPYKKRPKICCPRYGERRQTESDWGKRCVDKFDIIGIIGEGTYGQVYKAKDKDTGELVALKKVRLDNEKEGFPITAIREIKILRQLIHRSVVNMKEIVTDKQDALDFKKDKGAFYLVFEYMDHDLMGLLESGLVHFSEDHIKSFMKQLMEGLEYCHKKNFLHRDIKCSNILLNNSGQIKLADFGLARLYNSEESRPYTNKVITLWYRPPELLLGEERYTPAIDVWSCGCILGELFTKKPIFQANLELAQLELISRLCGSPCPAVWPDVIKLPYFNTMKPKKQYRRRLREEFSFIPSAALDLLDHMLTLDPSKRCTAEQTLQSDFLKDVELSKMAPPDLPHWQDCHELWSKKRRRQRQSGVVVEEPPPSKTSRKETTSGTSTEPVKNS
T1 sequence (O75909 whole entry partner, species assumed, the tested form may be a part): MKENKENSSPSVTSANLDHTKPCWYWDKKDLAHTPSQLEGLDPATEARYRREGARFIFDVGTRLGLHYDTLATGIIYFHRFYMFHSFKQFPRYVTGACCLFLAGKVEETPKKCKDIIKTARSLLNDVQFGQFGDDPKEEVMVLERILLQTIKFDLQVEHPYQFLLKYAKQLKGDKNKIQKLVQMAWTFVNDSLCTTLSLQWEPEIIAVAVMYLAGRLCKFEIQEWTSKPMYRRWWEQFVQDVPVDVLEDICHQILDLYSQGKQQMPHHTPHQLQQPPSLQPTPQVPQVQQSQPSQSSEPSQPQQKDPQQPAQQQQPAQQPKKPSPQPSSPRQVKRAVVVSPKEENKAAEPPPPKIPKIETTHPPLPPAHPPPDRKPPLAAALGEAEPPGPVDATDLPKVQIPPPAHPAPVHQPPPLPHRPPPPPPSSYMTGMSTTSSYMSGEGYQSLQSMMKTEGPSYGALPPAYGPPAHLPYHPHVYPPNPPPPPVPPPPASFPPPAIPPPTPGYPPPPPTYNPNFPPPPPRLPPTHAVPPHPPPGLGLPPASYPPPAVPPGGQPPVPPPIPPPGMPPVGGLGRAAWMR

| Structure (SMILES) | IC50 (CDK2/cyclinE1 complex) [µM] | IC50 [1] [µM] | IC50 (ovarian cancer A2780) [µM] |
| --- | --- | --- | --- |
| CP(C)(=O)c1cccc2c(-c3nc(N[C@@H]4CCC[C@H]4O)ncc3C(F)(F)F)c[nH]c12 [Compound 156] | 5 to 50 | 5 to 50 | 0.02 to 0.2 |
| CP(C)(=O)c1cccc2c(-c3nc(NC4(CO)CCC4)ncc3C(F)(F)F)c[nH]c12 [Compound 168, (3-(2-((1-(hydroxymethyl)cyclobutyl)amino)-5-(trifluoromethyl)pyrimidin-4-yl)-1H-indole-7-yl)dimethylphosphine oxide] | 5 to 50 | > 50 | 0.02 to 0.2 |
| CP(C)(=O)c1cccc2c(-c3nc(NC45CC(O)(C4)C5)ncc3C(F)(F)F)c[nH]c12 [Compound 174, (3-(2-((3-hydroxybicyclo[1.1.1]pentan-1-yl)amino)-5-(trifluoromethyl)pyrimidin-4-yl)-1H-indole-7-yl)dimethylphosphine oxide] | 0.2 to 5 | 0.2 to 5 | < 0.02 |
| C[C@@H](CO)Nc1ncc(C#N)c(-c2c[nH]c3c(P(C)(C)=O)cccc23)n1 [Compound 179, (S)-4-(7-(dimethylphosphoryl)-1H-indole-3-yl)-2-((1-hydroxypropan-2-yl)amino)pyrimidine-5-carbonitrile] | 0.2 to 5 | 5 to 50 | 0.02 to 0.2 |
| C[C@@H](CO)Nc1ncc(C(F)(F)F)c(-c2c[nH]c3c(P(C)(C)=O)c(F)ccc23)n1 [Compound 195] | 0.2 to 5 | 5 to 50 | < 0.02 |

The next lines start with the values.

| IC50 (CDK2/cyclinE1 complex) [µM] | IC50 [1] [µM] | IC50 (ovarian cancer A2780) [µM] | Structure (SMILES) |
| --- | --- | --- | --- |
| 0.2 to 5 | 5 to 50 | < 0.02 | CP(C)(=O)c1cccc2c(-c3nc(N[C@H]4CC[C@@H]4O)ncc3C(F)(F)F)c[nH]c12 [Compound 154, (3-(2-(((1S,2S)-2-hydroxycyclobutyl)amino)-5-(trifluoromethyl)pyrimidin-4-yl)-1hydro-indole-7-yl)dimethylphosphine oxide] |
| 0.2 to 5 | 5 to 50 | < 0.02 | CP(C)(=O)c1cccc2c(-c3nc(N[C@H]4CCC[C@@H]4O)ncc3C(F)(F)F)c[nH]c12 [Compound 155, (3-(2-(((1S,2S)-2-hydroxycyclopentyl)amino)-5-(trifluoromethyl)pyrimidin-4-yl)-1hydro-indole-7-yl)dimethylphosphine oxide] |
| 0.2 to 5 | > 50 | < 0.02 | C[C@@H](CO)Nc1ncc(C(F)(F)F)c(-c2c[nH]c3c(P(C)(C)=O)cc(F)cc23)n1 [Compound 158] |
